Source: US7723070B2, “Overexpression of aminoacyl-tRNA synthetases for efficient production of engineered proteins containing amino acid analogues” (California Institute of Technology, priority 2000, dated 2010)
Like-named read-outs stand apart in the source and are kept apart here.

Assays:
CAG18491/pQE15-MRS/pREP4 = assay type: cell-based, E. coli; conditions: for level of protein synthesis in modified host over conventional host (Western blot, laser densitometry): 5-ml cultures, versus CAG18491/pQE15/pREP4; for yield of mDHFR from large-scale cultures: preliminary results
Method: Similarly, a bacterial host capable of overexpressing MetRS was produced by transforming E. coli strains CAG18491 (Novagen, Inc., Madison, Wis., USA), a methionine auxotroph, with repressor plasmid pREP4 and expression plasmid pQE15-MRS, as described for the B834(DE3) strain. A control bacterial host, which produces only mDHFR and normal cellular levels of MetRS, was prepared by transforming CAG18491 with pREP4 and pQE15.
(§1) Methionine analogues were synthesized via alkylation of diethylacetamidomalonate, as previously described (As described in Example I, infra; J. C. M. van Hest, D. A. Tirrell, FEBS Lett. 1998, 428, 68-70). Cultures of B834(DE3)/pQE15-MRS/pREP4 or B834(DE3)/pQE15/pREP4 or CAG18491/pQE15-MRS/pREP4 or CAG18491/pQE15/pREP4 in M9AA media were grown to an optical density of 0.90, and the cells were sedimented by centrifugation. The M9AA medium was prepared by supplementing sterile M9 medium with […] of each of the amino acids, 1 mM MgSO4, 0.2 wt % glucose, 1 mg/ml thiamine chloride, and […] calcium chloride. The antibiotics ampicillin and kanamycin were added at concentrations of 200 mg/l and 35 mg/l, respectively.
(§2) Cells were washed three times with M9 salts and resuspended to an optical density of 0.90 in M9 test media containing 19 amino acids plus 1) neither methionine nor analogue (negative control); 2) methionine (60 mg/liter, positive control); or 3) an analogue of interest (60 mg/liter). To test the effect of increasing the level of supplementation of the analogues, a set of experiments was also conducted in which the medium was supplemented with 500 mg/liter of methionine or the amino acid analogue. Expression of mDHFR was induced by addition of 0.4 mM isopropyl β-D-thiogalactopyranoside (IPTG), and protein synthesis was monitored after 4.5 hours.
Buffers and media were prepared according to standard protocols (Ausubel, F. M.; Brent, R.; Kingston, R. E.; Moore, D. D.; Seidman, J. G.; Smith, J. A.; Struhl, K., Eds. Current Protocols in Molecular Biology; John Wiley and Sons: New York, 1998). The E. coli methionine auxotroph CAG18491 (λ^−, rph-1, metE3079.:Tn10) was transformed with plasmids pQE15 and pREP4 (Qiagen), to obtain the expression host CAG18491/pQE15/pREP4. […] Both bacterial expression hosts produce the target protein mDHFR under control of a bacteriophage T5 promoter; the modified host also expresses extra copies of the MetRS gene under control of the constitutive metG p1 promoter (Dardel, F.; Panvert, M.; Fayat, G. Mol. Gen. Genet. 1990, 223, 121.133).
M9AA medium (100 mL) supplemented with 1 mM MgSO4 0.2 wt % glucose, 1 mg/L thiamine chloride and the antibiotics ampicillin (200 mg/L) and kanamycin (35 mg/L) was inoculated with the appropriate E. coli strain (CAG18491/pQE15/pREP4 or CAG18491/pQE15-MRS/pREP4) and grown overnight at 37° C. This culture was used to inoculate 900 mL M9AA medium supplemented as described. The cells were grown to an optical density at 600 nm (OD600) of approximately 0.9 and a medium shift was performed. The cells were sedimented for 10 min at 3030 g at 4° C., the supernatant was removed, and the cell pellet was washed twice with 600 mL of M9 medium. Cells were resuspended in 1000 mL of the M9AA medium described above, without methionine, and supplemented with 20 mg/L of the L-isomer of either 1, 2, 3, or 9. Protein synthesis was induced by addition of isopropyl-β-D-thiogalactopyranoside (IPTG) to a final concentration of 0.4 mM. Samples (1 mL) were collected after 4.5 hours, the OD600 measured, and cells resuspended with distilled water to yield a normalized OD600 of 20.

[1] = tested on: B834(DE3) or CAG18491 hosts with pQE15/pREP4 or pQE15-MRS/pREP4; assay: Translational activity: mDHFR synthesis, statements covering several bacterial hosts (with pQE15 or pQE15-MRS); assay type: cell-based, E. coli; conditions: for translational activity / incorporation in hosts with increased MetRS activity: hosts overproducing MetRS; for target protein mDHFR in SDS-PAGE: amino acids at 60 mg/liter, both bacterial hosts
Method: as §1, §2

Molecule | mDHFR expression (SDS-PAGE) (CAG18491/pQE15-MRS/pREP4; 60 mg/L) | translational activity / incorporation in hosts with increased MetRS activity [1] | level of protein synthesis in modified host over conventional host (Western blot, laser densitometry) (CAG18491/pQE15-MRS/pREP4) | yield of mDHFR from large-scale cultures (CAG18491/pQE15-MRS/pREP4) | target protein mDHFR in SDS-PAGE [1] | mDHFR expression (SDS-PAGE) (CAG18491/pQE15-MRS/pREP4; 500 mg/liter)
2-butynylglycine [Analogue 11] | strong induction of mDHFR | permits incorporation |  |  |  | 
C=CCCC(N)C(=O)O (racemic) [Analogue 2, DL-2-amino-5-hexenoic acid] |  |  | approximately 1.5 fold | approximately 35 mg/L | detected | 
C#CCCC(N)C(=O)O (racemic) [Analogue 3, DL-homopropargylglycine] |  |  | does not exhibit higher levels of protein synthesis |  | detected | 
C/C=C\CC(N)C(=O)O (racemic) [Analogue 4, cis-2-amino-4-hexenoic acid] |  | permits incorporation |  |  | not observed | able to produce the target protein
C/C=C/CC(N)C(=O)O (racemic) [Analogue 5, trans-2-amino-4-hexenoic acid] |  | permits incorporation |  |  |  | 
CCCCCC(N)C(=O)O (racemic) [Analogue 7, DL-2-aminoheptanoic acid] |  | permits incorporation |  |  | not observed | able to produce the target protein
CSCC[C@H](N)C(=O)O [Analogue 1, L-methionine, reference compound] |  |  | does not exhibit higher levels of protein synthesis |  | detected | 
CCC[C@H](N)C(=O)O [Analogue 8, L-norvaline] |  | permits incorporation |  |  | not observed | able to produce the target protein
CCCC[C@H](N)C(=O)O [Analogue 9, L-norleucine] |  |  | approximately 1.4 fold | approximately 35 mg/L | detected | 
C=CCC(N)C(=O)O (stereo not shown) [Analogue 12, allylglycine] |  | permits incorporation |  |  | not observed | able to produce the target protein
